Values of other authors in US20140080794A1, “Methods and Compositions for the Treatment of Estrogen-Dependent Hyperproliferative Uterine Disorders” (Vivus, Inc., priority 2008, published 2014).

System: endometriosis patients

For `CC(C)(C#N)c1cc(Cn2cncn2)cc(C(C)(C)C#N)c1` [anastrozole, α, α, α′, α′-tetramethyl-5-(1H-1,2,4-triazol-1-ylmethyl)-1,3-benzene-diacetonitrile], the symptoms of endometriosis (1 mg anastrozole and an oral contraceptive (20 μg ethinyl estradiol/1 mg levonorgestrel) per day for six months) is listed as “symptom improvement” and the systemic estradiol levels (1 mg anastrozole and an oral contraceptive (20 μg ethinyl estradiol/1 mg levonorgestrel) per day, all patients, by the end of the treatment period) is listed as “significantly suppressed”.
